Laboratory results from publication PMC6100075, “Correlation between the Potency of Flavonoids on Mushroom Tyrosinase Inhibitory Activity and Melanin Synthesis in Melanocytes” (Molecules : A Journal of Synthetic Chemistry and Natural …, 2018).
Where two headings read alike, the source gives them in different places.

Experiments:
tyrosinase = tested on: tyrosinase; set-up: method as in PMID 17295516; details: cited from earlier work
mushroom tyrosinase [1] = target: mushroom tyrosinase (Agaricus bisporus, UniProt C7FF04); test: Mushroom tyrosinase inhibitory assay (o-diphenolase activity, L-DOPA as substrate); format: biochemical; details: for inhibition at 200 µM: read-out: Mushroom Tyrosinase Inhibition % Inhibition (at 200 μM);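 for all read-outs here: enzyme and test sample preincubated 10 min at 25 °C in pH 6.8 phosphate buffer, 50% DMSO vehicle as control, enzyme-free mixture as blank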
mushroom tyrosinase (Agaricus bisporus, UniProt C7FF04), sequence (G1K3P4 entry or part of it): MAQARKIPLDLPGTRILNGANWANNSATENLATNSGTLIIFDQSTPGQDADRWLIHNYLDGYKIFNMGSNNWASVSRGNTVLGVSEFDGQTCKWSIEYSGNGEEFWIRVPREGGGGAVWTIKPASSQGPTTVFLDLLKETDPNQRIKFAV
mushroom tyrosinase (Agaricus bisporus, UniProt C7FF04), sequence (C7FF04 2-392): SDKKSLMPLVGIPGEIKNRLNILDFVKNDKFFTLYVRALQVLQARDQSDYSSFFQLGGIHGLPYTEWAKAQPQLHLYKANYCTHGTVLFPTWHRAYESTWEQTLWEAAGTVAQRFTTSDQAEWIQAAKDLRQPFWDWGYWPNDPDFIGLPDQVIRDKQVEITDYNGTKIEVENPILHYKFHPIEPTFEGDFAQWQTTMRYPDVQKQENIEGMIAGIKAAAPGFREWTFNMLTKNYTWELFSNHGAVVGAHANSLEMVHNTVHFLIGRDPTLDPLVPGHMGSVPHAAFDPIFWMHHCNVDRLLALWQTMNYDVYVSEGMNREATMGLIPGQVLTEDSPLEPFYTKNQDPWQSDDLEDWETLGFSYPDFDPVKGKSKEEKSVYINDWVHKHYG

murine tyrosinase = target: T1, murine tyrosinase (Mus musculus, UniProt P11344); test: Murine tyrosinase inhibitory assay (o-diphenolase activity, crude enzyme from B16-F10 melanoma cells); format: biochemical; details: 200 μM, L-DOPA substrate;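 note: crude tyrosinase taken from lysed, dialyzed B16-F10 cell extract, with the inhibition reaction incubated for 2 h at 37 °C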
T1 construct: The cells were lysed by vortex and incubated at 4 °C for 1 h to solubilize the tyrosinase enzyme; endogenous in cells; host or cells: B16-F10 melanoma cells (Triton X-100 lysate, dialyzed)
T1 sequence (P11344 19-533): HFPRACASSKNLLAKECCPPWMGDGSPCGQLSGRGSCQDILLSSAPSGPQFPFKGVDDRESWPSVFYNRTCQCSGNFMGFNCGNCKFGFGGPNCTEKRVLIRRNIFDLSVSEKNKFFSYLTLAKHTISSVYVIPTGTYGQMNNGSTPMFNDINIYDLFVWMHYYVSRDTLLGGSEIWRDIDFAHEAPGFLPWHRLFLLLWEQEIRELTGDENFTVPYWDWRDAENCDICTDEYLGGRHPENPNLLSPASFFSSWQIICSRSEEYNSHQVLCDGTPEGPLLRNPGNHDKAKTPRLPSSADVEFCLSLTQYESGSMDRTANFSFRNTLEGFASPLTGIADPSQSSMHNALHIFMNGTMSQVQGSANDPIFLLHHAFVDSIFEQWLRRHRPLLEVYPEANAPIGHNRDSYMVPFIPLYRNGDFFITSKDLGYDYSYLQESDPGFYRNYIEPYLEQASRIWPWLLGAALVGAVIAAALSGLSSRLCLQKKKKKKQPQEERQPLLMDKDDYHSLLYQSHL

B16-F10 melanoma cells [2] = test: Total melanin content assay; format: cell-based, Mus musculus (mouse); details: for % Melanin Content / activity at 15 µM / activity at 30 µM: 72 h, relative to control; for activity at 15 µM / activity at 30 µM: B16-F10, read-out: % Melanin Content
Description: Mus musculus (mouse) melanoma cell line, B16-F10 (ATCC® Number: CRL-6475™, Manassas, VA, USA), was cultured in complete Dulbecco′s Modified Eagle′s Medium (DMEM, phenol red-free medium) containing 10% fetal bovine serum, 25 mM glucose, 4 mM L-glutamine, 1 mM sodium pyruvate, 10 μg/mL penicillin, and 10 μg/mL streptomycin, at 37 °C, with 5% carbon dioxide (CO2) in a humidified atmosphere.
The total melanin content, produced both extracellularly and intracellularly, was determined as follows: B16-F10 cells were seeded onto a 24-well plate at a concentration of 50,000 cells/0.5 mL/well and were incubated for 24 h, followed by treatment with either the test compounds or the control (0.5% DMSO), and then incubated for 72 h. For extraction, the total produced melanin and 0.5 mL of 2 N NaOH containing 20% DMSO were added directly to the cell culture medium, mixed by pipetting and then incubated at room temperature for 1 h. The lysed cell extract was centrifuged at 13,000× g for 5 min. Finally, the supernatant was transferred to a 96-well plate and the relative melanin content was detected at 405 nm using a micro plate reader. Kojic acid and oxyresveratrol were used as positive controls.

B16-F10 melanoma cells [3] = test: Cell viability assay (PrestoBlue resazurin); format: cell-based, Mus musculus (mouse);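 note: mouse B16-F10 melanoma cells exposed to test samples for 72 h, with viability read as fluorescence of resorufin formed when living cells reduce PrestoBlue resazurin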
[4] = Cell viability assay (PrestoBlue resazurin); format: cell-based, Mus musculus (mouse); details: mouse, 72 h, relative to control, read-out: % Cell Viability;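 note: mouse B16-F10 melanoma cells exposed to test samples for 72 h, with viability read as fluorescence of resorufin formed when living cells reduce PrestoBlue resazurin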
[5] = tested on: human melanoma cells (MMV II); set-up: method as in PMID 25248426; details: cited from earlier work
mushroom tyrosinase [6] = details: cited from earlier work
[7] = tested on: murine B16-F10 melanoma cells; set-up: method as in PMID 17873839, PMID 14717847, PMID 16794334, PMID 26656314; details: cited from earlier work
[8] = tested on: murine melan-a melanocytes; set-up: method as in PMID 19182387; details: cited from earlier work
[9] = read-out: Murine Tyrosinase Inhibition, % (at 200 μM)
[10] = 30 μM, 72 h, relative to control
[11] = read-out: monophenolase activity of mushroom tyrosinase IC50
[12] = read-out: Murine Tyrosinase Inhibition, % (at 200 μM), symbol

## O=c1c(-c2ccc(O)cc2)coc2c(O)c(O)ccc12 [7,8,4′-trihydroxyisoflavone]
tyrosinase
  inhibition of monophenolase and diphenolase activities of tyrosinase (in words): irreversibly inhibit

## Alpinetin [Compound 26]
Mushroom tyrosinase [1]; 200 μM, L-DOPA substrate
  Mushroom Tyrosinase Inhibition % Inhibition (at 200 μM): 36.9 ± 0.5%
Mushroom tyrosinase [1]; L-DOPA substrate, read-out: Mushroom Tyrosinase Inhibition IC50
  IC50: 450 ± 48.5 µM
Murine tyrosinase
  Murine Tyrosinase Inhibition, % (at 200 μM), symbol: - (no inhibition at 200 μM)
B16-F10 melanoma cells [2]; 15 μM
  % Melanin Content: 89.7 ± 0.4%
B16-F10 melanoma cells [2]; 30 μM
  % Melanin Content: 92.3 ± 1.6%
B16-F10 melanoma cells [3]; 15 μM
  % Cell Viability: 77.0 ± 12.7%
B16-F10 melanoma cells [3]; 30 μM
  % Cell Viability: 77.1 ± 10.2%

## COc1cc2c(cc1O)[C@@H]1COc3cc(O)ccc3[C@@H]1O2 [Compound 27, (6aR,11aR)-3,8-Dihydroxy-9-methoxy pterocarpan]
Mushroom tyrosinase [1]; 200 μM, L-DOPA substrate
  inhibition at 200 µM: 84.6 ± 0.6%
Murine tyrosinase; [9]
  inhibition at 200 µM: 29.2 ± 2.9%
B16-F10 melanoma cells [2]; 30 μM
  effect on melanin content (in words, Figure 1): inhibitory effect of melanogenesis
B16-F10 melanoma cells [2]; Mus musculus, B16-F10, 15 μM, read-out: inhibition of melanogenesis
  inhibition at 15 µM: 59%
B16-F10 melanoma cells [2]; Mus musculus, 15 μM
  activity at 15 µM: 41.9 ± 0.4%
B16-F10 melanoma cells [2]; Mus musculus, 30 μM
  activity at 30 µM: 53.5 ± 0.4%
[4]; B16-F10 melanoma cells
  viability at 72 h, 15 µM: 106 ± 4.9%
  viability at 72 h, 30 µM: 14%
B16-F10 melanoma cells [3]; 15 μM
  toxicity to B16-F10 cells (in words): no toxicity
B16-F10 melanoma cells [3]; [10]
  % Cell Viability: 14.5 ± 0.9%

## COc1cc(O)c2c(=O)c(O)c(-c3ccc(O)c(O)c3)oc2c1 [rhamnetin]
[5]
  effect on melanogenesis (in words): melanogenesis-promoting actions

## O=c1c(-c2ccc(O)cc2)coc2cc(O)c(O)cc12 [6,7,4′-trihydroxyisoflavone]
Mushroom tyrosinase [6]; [11]
  IC50: 9.2 µM

## COc1ccc(C2COc3c(ccc(O)c3OC)C2)c(O)c1O [Compound 21, (3R,S)-3′-Hydroxy-8-methoxy vestitol]
Mushroom tyrosinase [1]; 200 μM, L-DOPA substrate
  inhibition at 200 µM: 64.1 ± 1.3%
Murine tyrosinase; [9]
  inhibition at 200 µM: 11.4 ± 2.5%
B16-F10 melanoma cells [2]; Mus musculus, 15 μM
  activity at 15 µM: 97 ± 6.3%
B16-F10 melanoma cells [2]; Mus musculus, 30 μM
  activity at 30 µM: 36.3 ± 0.1%
[4]; B16-F10 melanoma cells
  viability at 72 h, 15 µM: 102.9 ± 1%
  viability at 72 h, 30 µM: 60%
B16-F10 melanoma cells [3]; [10]
  % Cell Viability: 62.4 ± 3.2%

## O=c1cc(-c2ccc(O)cc2)oc2cc(O)cc(O)c12 [apigenin]
[5]
  effect on melanogenesis (in words): melanogenesis-promoting actions

## O=c1cc(-c2ccc(O)c(O)c2)oc2cc(O)cc(O)c12 [luteolin]
[5]
  effect on melanogenesis (in words): melanogenesis-promoting actions

## O=c1c(-c2ccc(O)cc2)coc2cc(O)cc(O)c12 [Compound 4, Genistein]
Mushroom tyrosinase [1]; pre-incubation with enzyme in absence of L-DOPA, coloured product at 475 nm
  behaviour as substrate of mushroom tyrosinase (in words): chromogenic substrate analogs
Murine tyrosinase; [9]
  inhibition at 200 µM: 9.9 ± 3.1%
B16-F10 melanoma cells [2]; 30 μM
  effect on melanin content (in words, Figure 1): increased the melanin content
B16-F10 melanoma cells [2]; Mus musculus, 15 μM
  activity at 15 µM: 165.1 ± 1.6%
B16-F10 melanoma cells [2]; Mus musculus, 30 μM
  activity at 30 µM: 192 ± 13.9%
[4]
  viability at 72 h, 15 µM: 128 ± 3.5%
  viability at 72 h, 30 µM: 93.8 ± 5.7%
Mushroom tyrosinase [6]; [11]
  IC50: 822 µM
[5]
  effect on melanogenesis (in words): melanogenesis-promoting actions

## O=c1c(O)c(-c2ccc(O)c(O)c2)oc2cc(O)ccc12 [fisetin]
[5]
  effect on melanogenesis (in words): melanogenesis-promoting actions

## COc1cc2c(=O)c(-c3ccc(O)cc3)coc2cc1O [glycitein, 6-methoxy-7,4′-dihydroxyisoflavone]
Mushroom tyrosinase [6]; [11]
  IC50: 237 µM

## O=c1cc(-c2ccccc2)oc2cc(O)cc(O)c12 [chrysin]
[5]
  effect on melanogenesis (in words): melanogenesis-promoting actions

## O=c1c(-c2ccc(O)cc2)coc2cc(O)ccc12 [daidzein, 7,4′-dihydroxyisoflavone]
Mushroom tyrosinase [6]; [11]
  IC50: 264 µM

## O=c1c(O)c(-c2ccc(O)c(O)c2)oc2cc(O)cc(O)c12 [quercetin]
[7]
  effect on melanogenesis (in words): stimulate melanogenesis
[5]
  effect on melanogenesis (in words): melanogenesis-promoting actions

## O=c1c(O)c(-c2ccc(O)cc2)oc2cc(O)cc(O)c12 [kaempferol]
[5]
  effect on melanogenesis (in words): melanogenesis-promoting actions

## O=c1c(-c2ccc(O)cc2)coc2c(O)c(O)cc(O)c12 [5,7,8,4′-tetrahydroxyisoflavone]
tyrosinase
  inhibition of monophenolase and diphenolase activities of tyrosinase (in words): irreversibly inhibit

## O=C1C[C@@H](c2ccc(O)cc2)Oc2cc(O)cc(O)c21 [naringenin]
[7]
  effect on melanogenesis (in words): stimulate melanogenesis

## COc1ccc([C@H]2COc3cc(O)ccc3C2=O)c(OC)c1 [Compound 14, (3S)-Sativanone]
Mushroom tyrosinase [1]; L-DOPA substrate
  inhibition at 500 µM: 13%
Murine tyrosinase; [9]
  inhibition at 200 µM: 9.5 ± 1.6%
B16-F10 melanoma cells [2]; Mus musculus, 15 μM
  activity at 15 µM: 124 ± 4.3%
B16-F10 melanoma cells [2]; Mus musculus, 30 μM
  activity at 30 µM: 128 ± 6%
[4]; B16-F10 melanoma cells
  viability at 72 h, 15 µM: 107 ± 10.6%
  viability at 72 h, 30 µM: 60%
B16-F10 melanoma cells [3]; [10]
  % Cell Viability: 64.3 ± 23.7%

## COc1cc(O)c(-c2coc3cc(O)cc(O)c3c2=O)cc1O [Compound 5, Khrinone B]
Mushroom tyrosinase [1]; 200 μM, L-DOPA substrate
  inhibition at 200 µM: 72.7 ± 2.2%
Murine tyrosinase; [9]
  inhibition at 200 µM: 10.1 ± 3%
B16-F10 melanoma cells [2]; Mus musculus, 15 μM
  activity at 15 µM: 84.1 ± 5.3%
B16-F10 melanoma cells [2]; Mus musculus, 30 μM
  activity at 30 µM: 34.7 ± 12.3%
[4]; B16-F10 melanoma cells
  viability at 72 h, 15 µM: 95.1 ± 5.4%
  viability at 72 h, 30 µM: 60%
B16-F10 melanoma cells [3]; [10]
  % Cell Viability: 62.3 ± 15.1%

## COc1cc(OC)c(C2COc3cc(O)ccc3C2=O)cc1O (stereo not drawn) [Compound 12, Dalparvin]
Mushroom tyrosinase [1]; 200 μM, L-DOPA substrate
  inhibition at 200 µM: 31.6 ± 0.5%
Murine tyrosinase; [12]
  inhibition at 200 µM: < 0%
B16-F10 melanoma cells [2]; Mus musculus, 15 μM
  activity at 15 µM: 134 ± 9.7%
B16-F10 melanoma cells [2]; Mus musculus, 30 μM
  activity at 30 µM: 200 ± 12.1%
[4]; B16-F10 melanoma cells
  viability at 72 h, 15 µM: 117 ± 8.9%
  viability at 72 h, 30 µM: 99.7 ± 6.7%

## COc1ccc(C2COc3c(ccc(O)c3OC)C2)c(OC)c1O (stereo not drawn) [Compound 22, Duartin]
Mushroom tyrosinase [1]; L-DOPA substrate
  inhibition at 500 µM: 0%
Murine tyrosinase; [12]
  inhibition at 200 µM: < 0%
B16-F10 melanoma cells [2]
  increase in melanin content with respect to the control: three-fold increase
B16-F10 melanoma cells [2]; 30 μM
  effect on melanin content (in words, Figure 1): increased the melanin content
B16-F10 melanoma cells [2]; Mus musculus, 15 μM
  activity at 15 µM: 301.1 ± 2.3%
B16-F10 melanoma cells [2]; Mus musculus, 30 μM
  activity at 30 µM: 326.8 ± 2.1%
[4]; B16-F10 melanoma cells
  viability at 72 h, 15 µM: 140 ± 7.5%
  viability at 72 h, 30 µM: 94.4 ± 2.8%

## COc1ccc(-c2coc3cc(O)ccc3c2=O)cc1O [Compound 2, Calycosin]
Mushroom tyrosinase [1]; o-diphenolase, L-DOPA substrate
  inhibitory activity on mushroom tyrosinase (in words): did not show inhibitory activity
Mushroom tyrosinase [1]; read-out: Mushroom Tyrosinase Inhibition % Inhibition (at 300 μM)
  inhibition at 300 µM: 0%
Murine tyrosinase; [12]
  inhibition at 200 µM: < 0%
B16-F10 melanoma cells [2]; Mus musculus, 15 μM
  activity at 15 µM: 143 ± 8.2%
B16-F10 melanoma cells [2]; Mus musculus, 30 μM
  activity at 30 µM: 197 ± 6.4%
[4]; B16-F10 melanoma cells
  viability at 72 h, 15 µM: 99.1 ± 9.2%
  viability at 72 h, 30 µM: 101 ± 1.9%
Mushroom tyrosinase [6]; read-out: monophenolase inhibition of mushroom tyrosinase IC50
  IC50: 38.4 µM
[8]
  effect on melanin biosynthesis (in words): reduced melanin biosynthesis
